We go through 24 compounds from patent publication US12264156B2, “Compounds and pharmaceutical compositions thereof for the treatment of diseases” (GALAPAGOS NV, priority 2018, dated 2025).

Format in all cases: biochemical
What all share (settings): ADP-Glo SIK kinase assay

Assay [1] deals with T1, SIK1 (Homo sapiens, UniProt P57059).
T1 construct: purchased Carna Biosciences 02-131
The assay can be described thus: ADP-Glo kinase assay, SIK1. Summed up:
(§1)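 ADP-Glo, RT throughout. Enz/substrate + ATP, 120 min; ADP-Glo reagent 40 min (ATP depletion); detection reagent 30 min; luminescence read. Neg ctrl 1% DMSO, pos ctrl 10 μM staurosporine, final concs.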

In assay [2] the target is T2, SIK2 (Homo sapiens, UniProt Q9H0K1).
T2 construct: purchased ThermoFisher Scientific PV4792
Description: ADP-Glo kinase assay, SIK2. Summed up: as §1

Assay [3] addresses T3, SIK3 (Homo sapiens, UniProt Q9Y2K2).
T3 construct: purchased SignalChem S12-11G-100
Description: ADP-Glo kinase assay, SIK3. Summed up:
as §1

T2 sequence (Q9H0K1 whole entry): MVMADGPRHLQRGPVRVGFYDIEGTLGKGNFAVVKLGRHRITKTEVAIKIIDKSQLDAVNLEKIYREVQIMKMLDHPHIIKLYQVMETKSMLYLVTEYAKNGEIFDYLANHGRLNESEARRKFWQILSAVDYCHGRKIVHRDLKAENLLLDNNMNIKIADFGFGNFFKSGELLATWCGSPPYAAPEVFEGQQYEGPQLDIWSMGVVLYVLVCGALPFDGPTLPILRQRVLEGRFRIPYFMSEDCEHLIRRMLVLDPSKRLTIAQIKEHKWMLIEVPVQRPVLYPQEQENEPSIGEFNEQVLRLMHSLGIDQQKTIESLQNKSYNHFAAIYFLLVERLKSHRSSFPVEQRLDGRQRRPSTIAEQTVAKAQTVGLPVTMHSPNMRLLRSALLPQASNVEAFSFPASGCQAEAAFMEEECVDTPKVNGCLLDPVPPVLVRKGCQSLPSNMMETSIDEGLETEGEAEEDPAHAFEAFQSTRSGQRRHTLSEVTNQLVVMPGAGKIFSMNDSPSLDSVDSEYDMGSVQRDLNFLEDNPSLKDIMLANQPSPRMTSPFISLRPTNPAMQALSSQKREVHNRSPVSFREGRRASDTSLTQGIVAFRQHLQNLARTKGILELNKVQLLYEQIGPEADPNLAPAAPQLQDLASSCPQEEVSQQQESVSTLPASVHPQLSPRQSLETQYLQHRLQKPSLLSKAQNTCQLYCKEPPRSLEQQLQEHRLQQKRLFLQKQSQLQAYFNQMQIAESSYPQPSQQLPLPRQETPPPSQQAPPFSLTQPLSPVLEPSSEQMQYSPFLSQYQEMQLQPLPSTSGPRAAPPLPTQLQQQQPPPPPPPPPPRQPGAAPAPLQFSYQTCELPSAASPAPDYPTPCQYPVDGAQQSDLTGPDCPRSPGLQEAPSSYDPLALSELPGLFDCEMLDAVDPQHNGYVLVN
T1 sequence (P57059 whole entry): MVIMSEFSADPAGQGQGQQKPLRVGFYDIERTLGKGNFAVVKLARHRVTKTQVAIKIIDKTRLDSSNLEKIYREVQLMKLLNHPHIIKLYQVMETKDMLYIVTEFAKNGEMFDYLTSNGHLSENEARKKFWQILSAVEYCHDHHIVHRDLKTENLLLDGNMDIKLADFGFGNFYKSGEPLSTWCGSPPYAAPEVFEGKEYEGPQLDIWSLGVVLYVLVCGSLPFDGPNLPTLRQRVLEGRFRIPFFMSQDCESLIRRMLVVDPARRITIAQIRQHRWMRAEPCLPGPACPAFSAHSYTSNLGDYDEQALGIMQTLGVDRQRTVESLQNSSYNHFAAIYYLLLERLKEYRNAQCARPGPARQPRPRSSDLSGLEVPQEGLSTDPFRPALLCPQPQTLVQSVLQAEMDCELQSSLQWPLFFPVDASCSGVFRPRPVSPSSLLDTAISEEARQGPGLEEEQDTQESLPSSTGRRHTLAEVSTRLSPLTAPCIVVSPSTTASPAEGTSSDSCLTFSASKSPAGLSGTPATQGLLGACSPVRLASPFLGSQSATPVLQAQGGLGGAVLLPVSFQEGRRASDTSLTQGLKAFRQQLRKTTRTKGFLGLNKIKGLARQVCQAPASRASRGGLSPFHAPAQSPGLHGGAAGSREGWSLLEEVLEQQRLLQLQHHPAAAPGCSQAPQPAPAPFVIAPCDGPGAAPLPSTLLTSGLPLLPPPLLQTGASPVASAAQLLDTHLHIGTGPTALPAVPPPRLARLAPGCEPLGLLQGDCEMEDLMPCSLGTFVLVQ
T3 sequence (Q9Y2K2 whole entry): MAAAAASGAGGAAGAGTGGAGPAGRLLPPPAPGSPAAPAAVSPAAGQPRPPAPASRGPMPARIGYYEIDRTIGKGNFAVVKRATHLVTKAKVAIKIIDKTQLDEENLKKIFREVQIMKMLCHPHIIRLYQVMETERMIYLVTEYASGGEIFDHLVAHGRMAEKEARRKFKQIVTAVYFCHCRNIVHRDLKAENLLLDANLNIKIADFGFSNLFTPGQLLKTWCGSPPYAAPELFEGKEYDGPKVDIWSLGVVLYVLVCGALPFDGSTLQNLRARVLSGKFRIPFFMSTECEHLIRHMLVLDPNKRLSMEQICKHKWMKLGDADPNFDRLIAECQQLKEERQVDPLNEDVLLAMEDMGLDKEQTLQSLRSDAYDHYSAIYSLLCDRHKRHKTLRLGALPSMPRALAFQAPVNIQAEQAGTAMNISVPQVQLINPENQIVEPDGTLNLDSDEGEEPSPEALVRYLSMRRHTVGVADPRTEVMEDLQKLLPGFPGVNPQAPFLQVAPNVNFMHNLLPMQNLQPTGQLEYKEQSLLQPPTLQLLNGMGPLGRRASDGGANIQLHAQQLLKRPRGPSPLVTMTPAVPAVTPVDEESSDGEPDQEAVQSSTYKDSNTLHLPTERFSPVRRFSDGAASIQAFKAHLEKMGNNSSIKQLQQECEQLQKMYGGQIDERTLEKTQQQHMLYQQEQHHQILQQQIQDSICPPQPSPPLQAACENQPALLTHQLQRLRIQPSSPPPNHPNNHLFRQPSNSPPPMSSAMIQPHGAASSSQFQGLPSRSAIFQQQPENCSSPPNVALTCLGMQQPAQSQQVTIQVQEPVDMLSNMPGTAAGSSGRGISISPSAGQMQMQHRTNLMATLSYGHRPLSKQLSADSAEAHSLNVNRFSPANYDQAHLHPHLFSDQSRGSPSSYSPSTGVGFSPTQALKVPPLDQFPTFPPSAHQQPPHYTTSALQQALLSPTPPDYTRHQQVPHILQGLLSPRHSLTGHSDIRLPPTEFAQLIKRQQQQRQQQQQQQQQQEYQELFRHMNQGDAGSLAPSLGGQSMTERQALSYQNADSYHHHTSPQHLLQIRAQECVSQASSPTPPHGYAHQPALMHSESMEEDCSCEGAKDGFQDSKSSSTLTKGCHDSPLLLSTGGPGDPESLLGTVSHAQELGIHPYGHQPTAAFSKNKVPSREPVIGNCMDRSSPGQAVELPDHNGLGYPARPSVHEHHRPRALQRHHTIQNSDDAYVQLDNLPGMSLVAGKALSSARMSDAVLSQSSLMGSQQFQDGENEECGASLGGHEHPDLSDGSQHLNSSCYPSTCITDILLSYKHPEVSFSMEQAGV

Regarding `COc1cc(-c2cnc3cc(OCC4CCOC4)ccn23)cc(OC(F)F)c1C(=O)NC1CC1` (stereo not drawn) [compound 92, N-cyclopropyl-2-(difluoromethoxy)-6-methoxy-4-[7-(tetrahydrofuran-3-ylmethoxy)imidazo[1,2-a]pyridin-3-yl]benzamide], the IC50 in assay [1] was 10 to 100 nM; in assay [2] it was 0.01 to 10 nM; in assay [3] it was 0.01 to 10 nM.
In the case of `COc1cc(-c2cnc3cc(OCC4CCCO4)ccn23)cc(OC(F)F)c1C(=O)NC1CC1` (stereo not drawn) [compound 93, N-cyclopropyl-2-(difluoromethoxy)-6-methoxy-4-[7-(tetrahydrofuran-2-ylmethoxy)imidazo[1,2-a]pyridin-3-yl]benzamide], the IC50 in assay [1] lay within 10 to 100 nM; in assay [2], 0.01 to 10 nM; in assay [3], 0.01 to 10 nM.
As to `COc1cc(-c2cnc3cc(OCc4ncccn4)ccn23)cc(OC(F)F)c1C(=O)NC1CC1` [compound 94, N-cyclopropyl-2-(difluoromethoxy)-6-methoxy-4-[7-(pyrimidin-2-ylmethoxy)imidazo[1,2-a]pyridin-3-yl]benzamide], the IC50 in assay [1], in assay [2] and in assay [3] was 10 to 100 nM each time.
On to `COc1cc(-c2cnc3cc(OCc4cncs4)ccn23)cc(OC(F)F)c1C(=O)NC1CC1` [compound 95, N-cyclopropyl-2-(difluoromethoxy)-6-methoxy-4-[7-(thiazol-5-ylmethoxy)imidazo[1,2-a]pyridin-3-yl]benzamide], for which the IC50 in assay [1] was 10 to 100 nM; in assay [2], 0.01 to 10 nM; in assay [3], 0.01 to 10 nM.
Turning to `COc1cc(-c2cnc3cc(OCC4CC4)ccn23)cc(OC(F)F)c1C(=O)NC1CC1` [compound 96, N-cyclopropyl-4-[7-(cyclopropylmethoxy)imidazo[1,2-a]pyridin-3-yl]-2-(difluoromethoxy)-6-methoxy-benzamide], the IC50 in assay [1] was in the range of 10 to 100 nM; in assay [2], 0.01 to 10 nM; in assay [3], 0.01 to 10 nM.
On to `COc1cc(-c2cnc3cc(OCC4(C)CC4)ccn23)cc(OC(F)F)c1C(=O)NC1CC1` [compound 97, N-cyclopropyl-2-(difluoromethoxy)-6-methoxy-4-[7-[(1-methylcyclopropyl)methoxy]imidazo[1,2-a]pyridin-3-yl]benzamide], for which the IC50 in assay [1] was 10 to 100 nM; in assay [2], 0.01 to 10 nM; in assay [3], 0.01 to 10 nM.
As for `COc1cc(-c2cnc3cc(OCC4COCCO4)ccn23)cc(OC(F)F)c1C(=O)NC1CC1` (stereo not drawn) [compound 98, N-cyclopropyl-2-(difluoromethoxy)-4-[7-(1,4-dioxan-2-ylmethoxy)imidazo[1,2-a]pyridin-3-yl]-6-methoxy-benzamide], the IC50 in assay [1] lay within 10 to 100 nM; in assay [2] it was 0.01 to 10 nM; in assay [3], 0.01 to 10 nM.
With `COc1cc(-c2cnc3cc(OCC4CCC(=O)N4)ccn23)cc(OC(F)F)c1C(=O)NC1CC1` (stereo not drawn) [compound 99, N-cyclopropyl-2-(difluoromethoxy)-6-methoxy-4-[7-[(5-oxopyrrolidin-2-yl)methoxy]imidazo[1,2-a]pyridin-3-yl]benzamide], the IC50 in assay [1], in assay [2] and in assay [3] was 0.01 to 10 nM throughout.
As to `COc1cc(-c2cnc3cc(OCC(=O)N(C)C)ccn23)cc(OC(F)F)c1C(=O)NC1CC1` [compound 100, N-cyclopropyl-2-(difluoromethoxy)-4-[7-[2-(dimethylamino)-2-oxo-ethoxy]imidazo[1,2-a]pyridin-3-yl]-6-methoxy-benzamide], the IC50 in assay [1] is 100 to 500 nM; in assay [2], 10 to 100 nM; in assay [3], 10 to 100 nM.
Take `COc1cc(-c2cnc3cc(OCC4CNC(=O)C4)ccn23)cc(OC(F)F)c1C(=O)NC1CC1` (stereo not drawn) [compound 102, N-cyclopropyl-2-(difluoromethoxy)-6-methoxy-4-[7-[(5-oxopyrrolidin-3-yl)methoxy]imidazo[1,2-a]pyridin-3-yl]benzamide]: the IC50 lay within 10 to 100 nM in assay [1], 0.01 to 10 nM in assay [2] and 0.01 to 10 nM in assay [3].
Consider `COc1cc(-c2cnc3cc(OCc4ccncc4)ccn23)cc(OC(F)F)c1C(=O)NC1CC1` [compound 103, N-cyclopropyl-2-(difluoromethoxy)-6-methoxy-4-[7-(4-pyridylmethoxy)imidazo [1,2-a]pyridin-3-yl]benzamide], for which the figures for the IC50 in assay [1], in assay [2] and in assay [3] were 10 to 100 nM, 0.01 to 10 nM and 0.01 to 10 nM, respectively.
For `COc1cc(-c2cnc3cc(OCc4ccccn4)ccn23)cc(OC(F)F)c1C(=O)NC1CC1` [compound 105, N-cyclopropyl-2-(difluoromethoxy)-6-methoxy-4-[7-(2-pyridylmethoxy)imidazo [1,2-a]pyridin-3-yl]benzamide], the results for the half-maximal inhibitory concentration (IC50) in assay [1], in assay [2] and in assay [3] were 10 to 100 nM, 0.01 to 10 nM and 0.01 to 10 nM, respectively.
As to `COc1cc(-c2cnc3cc(OCC(C)(C)N(C)C)ccn23)cc(OC(F)F)c1C(=O)NC1CC1` [compound 106, N-cyclopropyl-2-(difluoromethoxy)-4-[7-[2-(dimethylamino)-2-methyl-propoxy]imidazo[1,2-a]pyridin-3-yl]-6-methoxy-benzamide], the results for the IC50 in assay [1], in assay [2] and in assay [3] were above 500 nM, 10 to 100 nM and 10 to 100 nM, respectively.
With `COc1cc(-c2cnc3cc(OCC4CC(N)C4)ccn23)cc(OC(F)F)c1C(=O)NC1CC1` (stereo not drawn) [compound 108, 4-[7-[(3-aminocyclobutyl)methoxy]imidazo[1,2-a]pyridin-3-yl]-N-cyclopropyl-2-(difluoromethoxy)-6-methoxy-benzamide], the IC50 in assay [1], in assay [2] and in assay [3] was 0.01 to 10 nM throughout.
Regarding `COc1cc(-c2cnc3cc(OCCN4CCC4)ccn23)cc(OC(F)F)c1C(=O)NC1CC1` [compound 112, 4-[7-[2-(azetidin-1-yl)ethoxy]imidazo[1,2-a]pyridin-3-yl]-N-cyclopropyl-2-(difluoromethoxy)-6-methoxy-benzamide], the results for the IC50 in assay [1], in assay [2] and in assay [3] were 10 to 100 nM, 0.01 to 10 nM and 0.01 to 10 nM, respectively.
With `COc1cc(-c2cnc3cc(OCCNCCO)ccn23)cc(OC(F)F)c1C(=O)NC1CC1` [compound 114], the IC50 lay within 10 to 100 nM in assay [1], 0.01 to 10 nM in assay [2] and 0.01 to 10 nM in assay [3].
Turning to `COc1cc(-c2cnc3cc(OCCCN)ccn23)cc(OC(F)F)c1C(=O)NC1CC1` [compound 115, 4-[7-(3-aminopropoxy)imidazo [1,2-a]pyridin-3-yl]-N-cyclopropyl-2-(difluoromethoxy)-6-methoxy-benzamide], the results for the IC50 in assay [1], in assay [2] and in assay [3] were 10 to 100 nM, 0.01 to 10 nM and 0.01 to 10 nM, respectively.
Take `COc1cc(-c2cnc3cc(OCC4(CN)CCC4)ccn23)cc(OC(F)F)c1C(=O)NC1CC1` [compound 116, 4-[7-[[1-(aminomethyl)cyclobutyl]methoxy]imidazo[1,2-a]pyridin-3-yl]-N-cyclopropyl-2-(difluoromethoxy)-6-methoxy-benzamide]: the IC50 in assay [1] was 10 to 100 nM; in assay [2], 0.01 to 10 nM; in assay [3], 0.01 to 10 nM.
With `COc1cc(-c2cnc3cc(OCC4CCCCN4)ccn23)cc(OC(F)F)c1C(=O)NC1CC1` (stereo not drawn) [compound 119, N-cyclopropyl-2-(difluoromethoxy)-6-methoxy-4-[7-(2-piperidylmethoxy)imidazo[1,2-a]pyridin-3-yl]benzamide], the IC50 in assay [1] lay within 10 to 100 nM; in assay [2], 0.01 to 10 nM; in assay [3] it was 0.01 to 10 nM.
Consider `COc1cc(-c2cnc3cc(OC[C@@H]4COCCO4)ccn23)cc(OC(F)F)c1C(=O)NC1CC1` [compound 120, N-cyclopropyl-2-(difluoromethoxy)-4-[7-[[(2S)-1,4-dioxan-2-yl]methoxy]imidazo[1,2-a]pyridin-3-yl]-6-methoxy-benzamide], for which the IC50 in assay [1] was in the range of 10 to 100 nM; in assay [2], 0.01 to 10 nM; in assay [3] it was 0.01 to 10 nM.
Regarding `COc1cc(-c2cnc3cc(OCC(N)C(C)C)ccn23)cc(OC(F)F)c1C(=O)NC1CC1` (stereo not drawn) [compound 121, 4-[7-(2-amino-3-methyl-butoxy)imidazo[1,2-a]pyridin-3-yl]-N-cyclopropyl-2-(difluoromethoxy)-6-methoxy-benzamide], the IC50 in assay [1] fell in the range of 10 to 100 nM; in assay [2], 0.01 to 10 nM; in assay [3], 0.01 to 10 nM.
For `CCC(N)COc1ccn2c(-c3cc(OC)c(C(=O)NC4CC4)c(OC(F)F)c3)cnc2c1` (stereo not drawn) [compound 131, 4-[7-(2-aminobutoxy)imidazo[1,2-a]pyridin-3-yl]-N-cyclopropyl-2-(difluoromethoxy)-6-methoxy-benzamide], the IC50 fell in the range of 10 to 100 nM in assay [1], 0.01 to 10 nM in assay [2] and 0.01 to 10 nM in assay [3].
As for `COc1cc(-c2cnc3cc(OC[C@@H](N)CC(C)C)ccn23)cc(OC(F)F)c1C(=O)NC1CC1` [compound 132, 4-[7-[(2S)-2-amino-4-methyl-pentoxy]imidazo[1,2-a]pyridin-3-yl]-N-cyclopropyl-2-(difluoromethoxy)-6-methoxy-benzamide], the IC50 in assay [1] was in the range of 10 to 100 nM; in assay [2], 0.01 to 10 nM; in assay [3], 0.01 to 10 nM.
As for `COc1cc(-c2cnc3cc(OC[C@@H](N)C4CCCCC4)ccn23)cc(OC(F)F)c1C(=O)NC1CC1` [compound 133, 4-[7-[(2S)-2-amino-2-cyclohexyl-ethoxy]imidazo[1,2-a]pyridin-3-yl]-N-cyclopropyl-2-(difluoromethoxy)-6-methoxy-benzamide], the IC50 fell in the range of 10 to 100 nM in assay [1], 0.01 to 10 nM in assay [2] and 0.01 to 10 nM in assay [3].
